Data published in publication PMC4149842 (ChemMedChem, 2014).
Read-outs that look alike come from different tables or passages of the source.

What was measured:
[1] = target: T1, human equilibrative nucleoside transporter 1 (hENT1) (Homo sapiens, UniProt Q99808); test: inhibition of initial rate of 3H-uridine; format: cell-based
T1 sequence (Q99808 2-456): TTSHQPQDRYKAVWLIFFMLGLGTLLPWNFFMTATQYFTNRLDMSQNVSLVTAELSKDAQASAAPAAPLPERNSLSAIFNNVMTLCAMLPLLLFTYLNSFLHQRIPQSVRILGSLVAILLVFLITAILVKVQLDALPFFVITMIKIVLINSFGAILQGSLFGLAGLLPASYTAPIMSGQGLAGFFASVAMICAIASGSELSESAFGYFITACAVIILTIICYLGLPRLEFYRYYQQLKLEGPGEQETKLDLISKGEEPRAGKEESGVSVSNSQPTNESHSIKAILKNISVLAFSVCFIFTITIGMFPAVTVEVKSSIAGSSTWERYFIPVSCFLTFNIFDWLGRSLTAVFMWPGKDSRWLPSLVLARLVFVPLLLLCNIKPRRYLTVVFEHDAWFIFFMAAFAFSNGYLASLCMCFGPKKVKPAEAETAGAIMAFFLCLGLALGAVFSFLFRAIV

[2] = target: T1, human equilibrative nucleoside transporter 1 (hENT1); test: inhibition of initial rate of 3H-uridine; format: cell-based; remark: listed apart in the source

SMILES | IC50 [1] | IC50 [2]
NC(=O)c1cn([C@@H]2O[C@H](CO)[C@@H](O)[C@H]2O)c2ncnc(NCc3ccc([N+](=O)[O-])cc3)c12 [2c, 5-Carboxamido-4-(4-nitrobenzylamino)-7-(β-D-ribofuranosyl)pyrrolo[2,3-d]pyrimidine] | 123 ± 31 nM | –
O=[N+]([O-])c1ccc(CNc2ncnc3c2ccn3[C@@H]2O[C@H](CO)[C@@H](O)[C@H]2O)cc1 [2b, 4-(4-Nitrobenzylamino)-7-(β-D-ribofuranosyl)pyrrolo[2,3-d]pyrimidine] | – | > 1000 nM
